Measurements reported in PubChem BioAssay AID256 (DTP/NCI, 2004).
Where “and” joins values, the source holds several entries; their conditions need not be identical. Equal values may be shown once. Toxic doses and inconclusive results are not listed. How the source made its calls: active means survival T/C of 150% or more; inactive means T/C below 125% in these data.

System: CD2F1 mice, L1210 leukemia ip, survival T/C
Assay: NCI In Vivo Anticancer Drug Screen. Data for tumor model L1210 Leukemia (intraperitoneal) in CD2F1 (CDF1) mice
Settings: endpoint: median survival time, higher = longer survival
Method in brief: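 Read-out first: treated-group measurement over vehicle-control measurement, expressed as a ratio. Animals bore a transplanted tumor line and were dosed with compound or vehicle.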

Measured: T/C

COc1cc([C@@H]2c3cc4c(cc3[C@@H](OC3OC5COC(C)OC5C(O)C3O)[C@H]3COC(=O)[C@H]23)OCO4)cc(OC)c1O (stereo partly drawn)
active: dose: 16.0 mg/kg/injection, schedule: Q04DX003 (ip), vehicle: other 212 % of control | dose: 16.0 mg/kg/injection, schedule: Q08DX002 (ip), vehicle: other 200 % of control | dose: 32.0 mg/kg/injection, schedule: Q01DX001 (ip), vehicle: other 162 % of control | dose: 32.0 mg/kg/injection, schedule: Q01DX001 (sc), vehicle: other 150 % of control | dose: 32.0 mg/kg/injection, schedule: Q04DX003 (ip), vehicle: other 206 % of control | dose: 32.0 mg/kg/injection, schedule: Q08DX002 (ip), vehicle: other 200 % of control | dose: 64.0 mg/kg/injection, schedule: Q01DX001 (ip), vehicle: other 218 % of control | dose: 64.0 mg/kg/injection, schedule: Q01DX001 (sc), vehicle: other 187 % of control | dose: 64.0 mg/kg/injection, schedule: Q01DX009 (oral), vehicle: other 162 % of control | dose: 64.0 mg/kg/injection, schedule: Q04DX003 (ip), vehicle: other 156 % of control | dose: 64.0 mg/kg/injection, schedule: Q08DX002 (ip), vehicle: other 212 % of control | dose: 128.0 mg/kg/injection, schedule: Q03HX016 (oral), vehicle: Klucel (hydroxypropylcellulose) (HPC) 150 % of control | dose: 128.0 mg/kg/injection, schedule: Q08DX002 (ip), vehicle: other 175 % of control | dose: 512.0 mg/kg/injection, schedule: Q01DX001 (oral), vehicle: other 150 % of control | dose: 1024.0 mg/kg/injection, schedule: Q01DX001 (oral), vehicle: other 150 % of control
inactive: dose: 32.0 mg/kg/injection, schedule: Q01DX001 (oral), vehicle: Klucel (hydroxypropylcellulose) (HPC) 105 % of control | dose: 32.0 mg/kg/injection, schedule: Q01DX009 (ip), vehicle: other 87 % of control | dose: 32.0 mg/kg/injection, schedule: Q01DX009 (ip), vehicle: saline 110 % of control | dose: 32.0 mg/kg/injection, schedule: Q01DX009 (oral), vehicle: Klucel (hydroxypropylcellulose) (HPC) 122 % of control | dose: 32.0 mg/kg/injection, schedule: Q01DX009 (sc), vehicle: other 87 % of control | dose: 32.0 mg/kg/injection, schedule: Q03HX008 (oral), vehicle: Klucel (hydroxypropylcellulose) (HPC) 122 % of control | dose: 32.0 mg/kg/injection, schedule: Q03HX016 (oral), vehicle: Klucel (hydroxypropylcellulose) (HPC) 116 % of control | dose: 32.0 mg/kg/injection, schedule: Q04DX003 (oral), vehicle: Klucel (hydroxypropylcellulose) (HPC) 105 % of control | dose: 32.0 mg/kg/injection, schedule: Q08DX002 (oral), vehicle: Klucel (hydroxypropylcellulose) (HPC) 111 % of control | dose: 64.0 mg/kg/injection, schedule: Q01DX001 (oral), vehicle: Klucel (hydroxypropylcellulose) (HPC) 111 % of control | dose: 64.0 mg/kg/injection, schedule: Q01DX009 (ip), vehicle: saline 102 % of control | dose: 64.0 mg/kg/injection, schedule: Q03HX008 (oral), vehicle: Klucel (hydroxypropylcellulose) (HPC) 116 % of control | dose: 64.0 mg/kg/injection, schedule: Q03HX024 (oral), vehicle: Klucel (hydroxypropylcellulose) (HPC) 94 % of control | dose: 64.0 mg/kg/injection, schedule: Q04DX003 (oral), vehicle: Klucel (hydroxypropylcellulose) (HPC) 122 % of control | dose: 64.0 mg/kg/injection, schedule: Q08DX002 (oral), vehicle: Klucel (hydroxypropylcellulose) (HPC) 111 % of control | dose: 128.0 mg/kg/injection, schedule: Q01DX001 (ip), vehicle: other 112 % of control | dose: 128.0 mg/kg/injection, schedule: Q01DX001 (oral), vehicle: Klucel (hydroxypropylcellulose) (HPC) 111 % of control | dose: 128.0 mg/kg/injection, schedule: Q01DX001 (sc), vehicle: other 87 % of control | dose: 128.0 mg/kg/injection, schedule: Q03HX008 (oral), vehicle: Klucel (hydroxypropylcellulose) (HPC) 122 % of control | dose: 128.0 mg/kg/injection, schedule: Q04DX003 (ip), vehicle: other 118 % of control | dose: 128.0 mg/kg/injection, schedule: Q04DX003 (oral), vehicle: Klucel (hydroxypropylcellulose) (HPC) 116 % of control | dose: 128.0 mg/kg/injection, schedule: Q08DX002 (oral), vehicle: Klucel (hydroxypropylcellulose) (HPC) 111 % of control | dose: 256.0 mg/kg/injection, schedule: Q01DX001 (oral), vehicle: Klucel (hydroxypropylcellulose) (HPC) 122 % of control | dose: 256.0 mg/kg/injection, schedule: Q01DX001 (oral), vehicle: other 118 % of control and 112 % of control | dose: 256.0 mg/kg/injection, schedule: Q01DX001 (sc), vehicle: other 87 % of control | dose: 256.0 mg/kg/injection, schedule: Q04DX003 (oral), vehicle: Klucel (hydroxypropylcellulose) (HPC) 122 % of control | dose: 256.0 mg/kg/injection, schedule: Q08DX002 (oral), vehicle: Klucel (hydroxypropylcellulose) (HPC) 111 % of control | dose: 512.0 mg/kg/injection, schedule: Q01DX001 (oral), vehicle: Klucel (hydroxypropylcellulose) (HPC) 122 % of control | dose: 512.0 mg/kg/injection, schedule: Q01DX009 (oral), vehicle: other 100 % of control and 112 % of control | dose: 512.0 mg/kg/injection, schedule: Q08DX002 (oral), vehicle: Klucel (hydroxypropylcellulose) (HPC) 105 % of control | dose: 1024.0 mg/kg/injection, schedule: Q01DX001 (oral), vehicle: Klucel (hydroxypropylcellulose) (HPC) 122 % of control | dose: 1024.0 mg/kg/injection, schedule: Q01DX009 (oral), vehicle: other 87 % of control and 100 % of control | dose: 1024.0 mg/kg/injection, schedule: Q08DX002 (oral), vehicle: Klucel (hydroxypropylcellulose) (HPC) 111 % of control
